Like-named read-outs stand apart in the source and are kept apart here.

One experiment relates to HIV-1. In words: microbe, parasite or virus in culture. The following applies: Human immunodeficiency virus 1, PBMC.
For experiment [1], the system named is Influenza A/TW/70066/09 (H1N1). Nature of the experiment: Anti-influenza neutralization test, various influenza virus strains. In kind it is cell-based.
Experiment [2] relates to Influenza A/TW/355/97 (H1N1). The description is as above. In kind it is cell-based.
In the next experiment the test system is Enterovirus 71/4643/MP4. In words: In vitro EV 71 neutralization assay, cytopathic effect on RD cells. The settings on record: Enterovirus A.
The subject of another experiment is Coxsackie B virus 3. Nature of the experiment: In vitro Coxsackie Virus B3 neutralization assay, cytopathic effect on RD cells.
In experiment [3] the test system is Influenza A/TW/70058/09 (H1N1). In words: Anti-influenza neutralization test, various influenza virus strains. It counts as cell-based.
The subject of experiment [4] is Influenza A/TW/147/09 (H1N1). Described as above. It counts as cell-based.
The test system of a further experiment is Human rhinovirus 2. Nature of the experiment: In vitro human rhinovirus 2 neutralization assay, cytopathic effect on RD cells. The following applies: Rhinovirus A.
Experiment [5] has as its system Influenza A/WSN/33 (H1N1) virus. Nature of the experiment: In vitro anti-influenza virus assay (neutralization test), cytopathic effect on MDCK cells. It counts as cell-based. The following applies: 72 h, read-out: IC50 (concentration reducing virus-induced cytopathic effect by 50%). On the technique in general: Protection from cytopathic effect is a common read-out in antiviral testing.

[6] abbreviates: 72 h, read-out: Inhibition (%) Day 3.
Where [7] appears, read: 120 h, read-out: Inhibition (%) Day 5.
[8] abbreviates: 168 h, read-out: Inhibition (%) Day 7.
The mark [9] stands for this setting: Influenza A/WSN/33 (H1N1), MDCK cells.
The mark [10] stands for this setting: Influenza A/WSN/33 (H1N1), MDCK cells, lower bound in nM, upper bound in μM.

Protocol for Coxsackie B virus 3: (§1) This assay measured the ability of a test compound to inhibit the cytopathic effect induced by a picornavirus (EV71, Coxsackie Virus B3, or human rhinovirus 2) on RD cells. […] More specifically, 96-well tissue culture plates were seeded with 200 μL of RD cells at a concentration of 3×10^5 cells/mL in DMEM with 10% FBS. The plates were incubated for 24-30 h at 37° C. and were used at about 90% confluency. Virus (100 TCID50) mixed with different concentrations of a test compound was added to the cells and incubated at 37° C. for 1 h. After adsorption, the infected cell plates were overlaid with 50 μL of DMEM plus 5% FBS and 2% DMSO. The plate was wrapped in Parafilm and incubated at 37° C. for 64 h. At the end of incubation, the plates were fixed by the addition of 100 μL of 0.5% glutaraldehyde for 1 h at room temperature. After the removal of glutaraldehyde, the plates were stained with 0.1% crystal violet for 15 min at room temperature. The plates were washed and dried, and the density of the well was measured at 570 nm. The concentration required for a test compound to reduce the virus-induced cytopathic effect (CPE) by 50% relative to the virus control is expressed as IC50.
Protocol for Enterovirus 71/4643/MP4: as §1
Protocol for HIV-1: Equal amounts of wild-type and mutant viruses were used to infect 5×10^4 peripheral blood mononuclear cells (PBMC) in 1.5 mL medium containing DMSO or various concentrations of a test compound. A half-milliliter of the culture medium was collected from each culture at days 3, 5, and 7. Viral RNA was extracted from the collected culture supernatants and the viral titers (copies/mL) were determined by real-time PCR. The percentage of inhibition was calculated as [100−(VD/VC)]×100%, where VD and VC refer to the virus titers in the presence and absence of the test compound, respectively.
Protocol for Human rhinovirus 2: as §1

As usually defined, the inhibition is the change of the read-out against control, counted positive when it falls. Turning to `Cc1cn([C@H]2C[C@H](N=[N+]=[N-])[C@@H](CO)O2)c(=O)[nH]c1=O` [AZT, zidovudine, reference compound], the inhibition at 0.04 µM was 30% with HIV-1 (setting [6]), 60% with HIV-1 (setting [7]) and 67% with HIV-1 (setting [8]).

As for `NC12CC3CC(CC(C3)C1)C2` [Amantadine], the IC50 in experiment [1] was 0.96 ± 0.317 µM; in experiment [2], 12.6 ± 6.93 µM; in the experiment with Enterovirus 71/4643/MP4 it was over 25 µM; in the experiment with Coxsackie B virus 3, over 25 µM; in experiment [3], 0.762 ± 0.28 µM; in experiment [4], 1.47 ± 0.603 µM. This compound also registered an IC50 with Human rhinovirus 2 of over 25 µM.

`Cc1c(-c2cc(C(=O)O)c3cc(F)ccc3n2)cnn1-c1ccccc1` [Compound 3]: the IC50 in experiment [5] (setting [9]) lay within 1000 to 5900 nM.

Take `Cc1c(-c2cc(C(=O)O)c3cc(Cl)ccc3n2)cnn1-c1ccccc1` [Compound 4]: the IC50 in experiment [5] (setting [10]) lay within 10 to 999 nM.

`Cc1ccc(-n2ncc(-c3cc(C(=O)O)c4cc(Br)ccc4n3)c2C)c(C)c1` [Compound 5]: in experiment [5] (setting [10]), the IC50 was in the range of 10 to 999 nM.

Consider `Cc1c(-c2cc(C(=O)O)c3cc(Br)ccc3n2)cnn1-c1ccc(F)c(F)c1` [Compound 6], for which the IC50 in experiment [5] (setting [9]) lay within 1000 to 5900 nM.

On to `COc1ccc(-n2ncc(-c3cc(C(=O)O)c4cc(Br)ccc4n3)c2C)cc1` [Compound 7], for which the IC50 in experiment [5] (setting [9]) lay within 1000 to 5900 nM.

As to `Cc1c(-c2cc(C(=O)O)c3cc(Br)ccc3n2)cnn1-c1ccc(Cl)c(Cl)c1` [Compound 8], the IC50 in experiment [5] (setting [9]) is 1000 to 5900 nM.

Take `Cc1ccc(-n2ncc(-c3cc(C(=O)O)c4cc(Br)ccc4n3)c2C)cc1` [Compound 9]: the IC50 in experiment [5] (setting [10]) lay in the range of 10 to 999 nM.

Consider `Cc1c(-c2cc(C(=O)O)c3cc(Br)ccc3n2)cnn1-c1ccc(F)cc1` [Compound 10], for which the IC50 in experiment [5] (setting [10]) fell in the range of 10 to 999 nM.

`Cc1c(-c2cc(C(=O)O)c3cc(Br)ccc3n2)cnn1-c1cccc(F)c1` [Compound 11]: the IC50 in experiment [5] (setting [9]) lay within 1000 to 5900 nM.

Regarding `Cc1c(-c2cc(C(=O)O)c3cc(Br)ccc3n2)cnn1-c1ccc(Cl)cc1` [Compound 12], in [5] (setting [9]), the IC50 was 1000 to 5900 nM.

As to `Cc1c(-c2cc(C(=O)O)c3cc(Br)ccc3n2)cnn1-c1ccc(C(C)C)cc1` [Compound 13], the IC50 in experiment [5] (setting [10]) was 10 to 999 nM.

In the case of `Cc1cc(Cl)ccc1-n1ncc(-c2cc(C(=O)O)c3cc(Br)ccc3n2)c1C` [Compound 14], the inhibition at 10 µM with HIV-1 (setting [6]) was determined as 20%; in the experiment on HIV-1 (setting [7]) it was 59%; in the experiment on HIV-1 (setting [8]), 86%. Besides, the inhibition at 0.01 µM in the experiment on HIV-1 (setting [7]) is 48%. Moreover, the IC50 in experiment [5] (setting [10]) was in the range of 10 to 999 nM.

On to `Cc1cc(C)cc(-n2ncc(-c3cc(C(=O)O)c4cc(Br)ccc4n3)c2C)c1` [Compound 15], for which the IC50 in experiment [5] (setting [10]) lay within 10 to 999 nM.

In the case of `Cc1c(-c2cc(C(=O)O)c3cc(Br)ccc3n2)cnn1-c1ccc([N+](=O)[O-])cc1` [Compound 16], the IC50 in [5] (setting [9]) was 1000 to 5900 nM.

Consider `Cc1ccccc1-n1ncc(-c2cc(C(=O)O)c3cc(Br)ccc3n2)c1C` [Compound 17], for which the IC50 in experiment [5] (setting [10]) was in the range of 10 to 999 nM.

As for `COc1cccc(-n2ncc(-c3cc(C(=O)O)c4cc(Br)ccc4n3)c2C)c1` [Compound 18], the IC50 in experiment [5] (setting [9]) is 1000 to 5900 nM.

In the case of `O=C(O)c1cc(-c2cc(-c3ccccc3)no2)nc2ccc(Br)cc12` [Compound 19], the IC50 in experiment [5] (setting [9]) was in the range of 1000 to 5900 nM.

For `Cc1c(-c2cc(C(=O)O)c3cc(Br)ccc3n2)cnn1-c1ccc(Br)cc1` [Compound 20], the IC50 in experiment [5] (setting [10]) is 10 to 999 nM.

As to `Cc1c(-c2cc(C(=O)O)c3cc(Br)ccc3n2)cnn1-c1ccc(F)cc1F` [Compound 21], in experiment [5] (setting [9]), the IC50 lay within 1000 to 5900 nM.

Regarding `CCCc1cccc(-n2ncc(-c3cc(C(=O)O)c4cc(Br)ccc4n3)c2C)c1` [Compound 22], the IC50 in experiment [5] (setting [10]) lay within 10 to 999 nM.

In the case of `Cc1c(-c2cc(C(=O)O)c3cc(Br)ccc3n2)cnn1-c1ccc(C(F)(F)F)cc1` [Compound 23], the IC50 in experiment [5] (setting [9]) lay in the range of 1000 to 5900 nM.

As to `Cc1c(-c2cc(C(=O)O)c3cc(Br)ccc3n2)cnn1-c1ccccc1F` [Compound 24], the IC50 in experiment [5] (MDCK) is 10 to 999 nM.

Take `Cc1c(-c2cc(C(=O)O)c3cc(Br)ccc3n2)cnn1-c1cccc(Cl)c1` [Compound 25]: the IC50 in [5] (MDCK) was 10 to 999 nM.

Take `Cc1cccc(-n2ncc(-c3cc(C(=O)O)c4cc(Br)ccc4n3)c2C)c1` [Compound 26]: in [5] (MDCK), the IC50 was in the range of 10 to 999 nM.

Regarding `Cc1c(-c2cc(C(=O)O)c3cc(Br)ccc3n2)cnn1-c1ccc(Cl)cc1Cl` [Compound 27], the IC50 in experiment [5] (MDCK) fell in the range of 10 to 999 nM.

`Cc1c(-c2cc(C(=O)O)c3cc(Br)ccc3n2)cnn1-c1cccc([N+](=O)[O-])c1` [Compound 29]: the IC50 in experiment [5] (setting [9]) is 6000 to 25000 nM.

For the compound `Cc1cccc(-n2ncc(-c3cc(C(=O)O)c4cc(Br)ccc4n3)c2C)c1C` [Compound 30], the IC50 in [5] (setting [10]) lay in the range of 10 to 999 nM.

`Cc1ccc(Cl)cc1-n1ncc(-c2cc(C(=O)O)c3cc(Br)ccc3n2)c1C` [Compound 31]: in [5] (setting [10]), the IC50 is 10 to 999 nM.

`Cc1ccc(C)c(-n2ncc(-c3cc(C(=O)O)c4cc(Cl)ccc4n3)c2C)c1` [Compound 33]: the IC50 in experiment [5] (setting [10]) was 10 to 999 nM.

Consider `Cc1ccc(Cl)cc1-n1ncc(-c2cc(C(=O)O)c3cc(Cl)ccc3n2)c1C` [Compound 34], for which, in experiment [5] (setting [10]), the IC50 is 10 to 999 nM.

As to `Cc1cccc(C)c1-n1ncc(-c2cc(C(=O)O)c3cc(Br)ccc3n2)c1C` [Compound 36], the IC50 in experiment [5] (setting [9]) was in the range of 1000 to 5900 nM.

`Cc1cc(C)c(-n2ncc(-c3cc(C(=O)O)c4cc(Br)ccc4n3)c2C)c(C)c1` [Compound 37]: the IC50 in experiment [5] (setting [9]) fell in the range of 1000 to 5900 nM.

For `CCc1ccccc1-n1ncc(-c2cc(C(=O)O)c3cc(Br)ccc3n2)c1C` [Compound 38], the IC50 in experiment [5] (setting [9]) fell in the range of 1000 to 5900 nM.

On to `Cc1c(-c2cc(C(=O)O)c3cc(Br)ccc3n2)cnn1-c1cc(Cl)ccc1Cl` [Compound 39], for which the IC50 in experiment [5] (setting [9]) fell in the range of 6000 to 25000 nM.

For `Cc1c(-c2cc(C(=O)O)c3cc(Br)ccc3n2)cnn1-c1cc(F)ccc1F` [Compound 40], in experiment [5] (setting [9]), the IC50 was 6000 to 25000 nM.

Regarding `Cc1c(-c2cc(C(=O)O)c3cc(Br)ccc3n2)cnn1-c1c(Cl)cccc1Cl` [Compound 41], the IC50 in experiment [5] (setting [9]) was 6000 to 25000 nM.

As to `Cc1c(-c2cc(C(=O)O)c3cc(Br)ccc3n2)cnn1-c1c(Cl)cc(Cl)cc1Cl` [Compound 42], the IC50 in experiment [5] (setting [9]) fell in the range of 1000 to 5900 nM.

As for `O=C(O)c1cc(-c2cnn(-c3ccccc3)c2)nc2ccc(Br)cc12` [Compound 43], the IC50 in experiment [5] (setting [9]) fell in the range of 6000 to 25000 nM.

For the compound `Cc1nc(-c2ccccc2)sc1-c1cc(C(=O)O)c2cc(Br)ccc2n1` [Compound 46], the IC50 in [5] (setting [9]) was 1000 to 5900 nM.

Take `Cn1c(-c2ccccc2)ccc1-c1cc(C(=O)O)c2cc(Br)ccc2n1` [Compound 47]: the IC50 in experiment [5] (setting [10]) lay in the range of 10 to 999 nM.

Turning to `Cc1c(-c2cc(C(=O)O)c3cc(Br)ccc3n2)ccn1-c1ccccc1` [Compound 48], in experiment [5] (setting [9]), the IC50 was 1000 to 5900 nM.

In the case of `Cc1c(-c2cc(C(=O)O)c3cc(Br)ccc3n2)noc1-c1ccccc1` [Compound 49], in experiment [5] (setting [9]), the IC50 is 1000 to 5900 nM.

In the case of `Cc1ccc(C)c(-n2ncc(-c3cc(C(=O)O)c4cc(F)ccc4n3)c2C)c1` [Compound 50], the IC50 in experiment [5] (setting [9]) was 1000 to 5900 nM.

For `Cc1c(-c2cc(C(=O)O)c3cc(Br)ccc3n2)ncn1-c1ccccc1` [Compound 51], the IC50 in experiment [5] (setting [10]) lay in the range of 10 to 999 nM.

In the case of `Cc1c(-c2cc(C(=O)O)c3cc(Br)ccc3n2)cnn1-c1cc(Cl)cc(Cl)c1` [Compound 57], in [5] (setting [9]), the IC50 fell in the range of 1000 to 5900 nM.

`Cc1ccc(C)c(-n2ncc(-c3cc(C(=O)O)c4cc(Br)cc(Br)c4n3)c2C)c1` [Compound 58]: the IC50 in experiment [5] (setting [9]) lay in the range of 1000 to 5900 nM.

On to `Cc1ccc(C)c(-n2ncc(-c3cc(C(=O)O)c4cc(Br)cc(C)c4n3)c2C)c1` [Compound 59], for which the IC50 in experiment [5] (setting [9]) was in the range of 1000 to 5900 nM.

Regarding `Cc1ccc(C)c(-n2ncc(-c3cc(C(=O)O)c4cc(I)ccc4n3)c2C)c1` [Compound 60], the IC50 in experiment [5] (setting [10]) is 10 to 999 nM.

Regarding `Cc1cc(-c2cc(C(=O)O)c3cc(Br)ccc3n2)nn1-c1nc2ccccc2s1` [Compound 73], the IC50 in [5] (setting [9]) was 1000 to 5900 nM.

On to `Cc1cc(C(F)(F)F)cc(-n2nc(-c3cc(C(=O)O)c4cc(Br)ccc4n3)cc2C)n1` [Compound 74], for which the IC50 in experiment [5] (setting [9]) fell in the range of 1000 to 5900 nM.

In the case of `Cc1cc(-c2cc(C(=O)O)c3cc(Br)ccc3n2)nn1-c1ccc2ccccc2n1` [Compound 75], the IC50 in experiment [5] (setting [9]) lay in the range of 1000 to 5900 nM.

Consider `Cc1c(-c2ccccc2)cccc1-c1cc(C(=O)O)c2cc(Br)ccc2n1` [Compound 76], for which the IC50 in experiment [5] (setting [9]) is 1000 to 5900 nM.

For the compound `CC(=O)N[C@H]1[C@H]([C@H](O)[C@H](O)CO)OC(C(=O)O)=C[C@@H]1N=C(N)N` [Relenza, Zanamivir], the IC50 in experiment [1] is 0.809 ± 0.15 µM; in experiment [2], 1.05 ± 0.458 µM; in the experiment on Enterovirus 71/4643/MP4, over 25 µM; in the experiment on Coxsackie B virus 3, over 25 µM; in [3], 0.86 ± 0.36 µM; in experiment [4], 22.5 ± 3.47 µM. Also, the IC50 in the experiment with Human rhinovirus 2 is over 25 µM.

(Values after patent US8710079B2, “Quinoline compounds and their use for treating viral infection” (National Health Research Institutes, priority 2010, dated 2014).)
